Values quoted from earlier work in patent US8153634B2, “Carbinol derivatives having cyclic linker” (Kowa Company, Ltd., priority 2008, dated 2012).

Tested on: LXRβ (versus LXRα)
Settings: reported in non-patent document 22

O=C(O)Cc1ccc(COc2cccc(-c3c(Cc4ccccc4)cnc4c(C(F)(F)F)cccc34)c2)cc1 [WAY-254011]
LXRβ-selective binding affinity, α/β ratio: 1 to 5
